From patent US20190345558A1, “METHOD FOR DETERMINING SENSITIVITY TO A CDK4/6 INHIBITOR” (UNIVERSITÉ LIBRE DE BRUXELLES, priority 2016, published 2019)

Experiments:
[1] = system: HCC1569; experiment: BrdU DNA incorporation assay
Protocol: (§1) One hour before fixation with methanol, 100 μM 5-Bromo-2′-deoxyuridine (BrdU, Sigma-Aldrich) and 4 μM 5-Fluoro-2′-deoxyuridine (FldU, Sigma-Aldrich) were added to the cells. Immuno-detection of DNA incorporated BrdU was performed. 4′,6-Diamidino-2-phenylindole, dilactate (DAPI, Thermo Fisher Scientific) solution (1 μg/ml) was used as nuclear counterstain and round coverslips were mounted in each well of the 96 well plate with ProLong Gold Antifade Mountant (Thermo Fisher Scientific). […] Culture plates were imaged with a Zeiss Axio Observer.Z1 wide-field microscope equipped with a 10/0.3×EC Plan Neofluar objective and an AxioCam HSm camera. For each well, a grid of 3×3 fields (each of them 660 μm×492 μm) was automatically defined using the Mark&Find option of the AxioVision software. […] Exposure times were chosen so as to maximize the signal while avoiding saturation. They were kept constant through all images within one experiment. A software-based autofocus was performed on the DAPI channel, using a general offset of 8-10 μm. A 10 μm offset was added for the A488 channel. Images were analyzed semi-automatically with a custom-made ImageJ macro. […] The total number of nuclei and the area that they represent were recorded to compute the BrdU-positive to total nuclei ratios. […] Images with less than 10 labeled nuclei were counted manually with the Image J cell counter plugin.

[2] = system: MDAMB361; experiment: BrdU DNA incorporation assay
Protocol: as §1

[3] = system: HCC70; experiment: BrdU DNA incorporation assay
Protocol: as §1

[4] = system: HCC38; experiment: BrdU DNA incorporation assay
Protocol: as §1

[5] = system: HCC202; experiment: BrdU DNA incorporation assay; conditions: Homo sapiens, HCC202, 24 h
Protocol: as §1

[6] = system: MDAMB134VI; experiment: BrdU DNA incorporation assay
Protocol: as §1

[7] = system: HCC1954; experiment: BrdU DNA incorporation assay
Protocol: as §1

[8] = system: ZR751; experiment: BrdU DNA incorporation assay
Protocol: as §1

[9] = system: HCC1937; experiment: BrdU DNA incorporation assay
Protocol: as §1

[10] = system: BT474; experiment: BrdU DNA incorporation assay
Protocol: as §1

[11] = system: BT20; experiment: BrdU DNA incorporation assay
Protocol: as §1

[12] = system: MDAMB231; experiment: BrdU DNA incorporation assay
Protocol: as §1

[13] = system: MCF7; experiment: BrdU DNA incorporation assay
Protocol: as §1

[14] = system: HCC1806; experiment: BrdU DNA incorporation assay
Protocol: One hour before fixation with methanol, 100 μM 5-Bromo-2′-deoxyuridine (BrdU, Sigma-Aldrich) and 4 μM 5-Fluoro-2′-deoxyuridine (FldU, Sigma-Aldrich) were added to the cells. Immuno-detection of DNA incorporated BrdU was performed. 4′,6-Diamidino-2-phenylindole, dilactate (DAPI, Thermo Fisher Scientific) solution (1 μg/ml) was used as nuclear counterstain and round coverslips were mounted in each well of the 96 well plate with ProLong Gold Antifade Mountant (Thermo Fisher Scientific). […] Culture plates were imaged with a Zeiss Axio Observer.Z1 wide-field microscope equipped with a 10/0.3×EC Plan Neofluar objective and an AxioCam HSm camera. For each well, a grid of 3×3 fields (each of them 660 μm×492 μm) was automatically defined using the Mark&Find option of the AxioVision software. […] Exposure times were chosen so as to maximize the signal while avoiding saturation. They were kept constant through all images within one experiment. A software-based autofocus was performed on the DAPI channel, using a general offset of 8-10 μm. A 10 μm offset was added for the A488 channel. Images were analyzed semi-automatically with a custom-made ImageJ macro. For each field of view, two masks were created, representing the areas positive for the DAPI or for both the DAPI and the BrdU stainings, respectively. Nuclei were then segmented within these masks using the “Analyze particles” function. The total number of nuclei and the area that they represent were recorded to compute the BrdU-positive to total nuclei ratios. The segmentation of the nuclei was verified visually and only values extracted from correctly segmented images were selected for further analysis. […] Each processed image was therefore systematically inspected to correct low counts and remove image with staining artefacts from the analysis. Images with less than 10 labeled nuclei were counted manually with the Image J cell counter plugin.

[15] = system: T47D; experiment: BrdU DNA incorporation assay
Protocol: as §1

[16] = system: MDAMB468; experiment: BrdU DNA incorporation assay
Protocol: as §1

[17] = system: breast cancer cell lines; experiment: BrdU incorporation assay, panel of 20 cell lines
Protocol: as §1

[18] = system: HCC1500; experiment: BrdU DNA incorporation assay
Protocol: as §1

[19] = system: BT549; experiment: BrdU DNA incorporation assay
Protocol: as §1

[20] = system: MDAMB436; experiment: BrdU DNA incorporation assay
Protocol: as §1

[21] = system: SKBR3; experiment: BrdU DNA incorporation assay
Protocol: as §1

[22] = system: pRb phosphorylations; experiment: pRb phosphorylation in HCC1806 cells; assay type: cell-based, Human; conditions: not shown
Protocol: Equal amounts of whole cell extract proteins were separated according to molecular mass and immunodetected. CDK4-containing complexes were co-immunoprecipited as described (Paternot et al., 2003, J Biol Chem, 278, 26533-40; Bockstaele et al., 2006, Mol Cell Biol, 26, 5070-85). For 2D gel electrophoresis, cells were lysed in a buffer containing 7 M urea and 2 M thiourea. Frozen tumor slides were solubilised in 30 mM Tris cold buffer pH 8.5 containing 7 M urea, 2 M thiourea and 4% CHAPS with continuous vortexing until defreezing and kept under agitation during 20 min. After centrifugation at 14000 rpm for 10 min at 4° C., proteins were quantified. An equal volume of 2-D-sample buffer (7 M urea, 2 M thiourea, 2% CHAPS, 0.4% 3-10 Pharmalytes and 0.4% DTT) was added to samples normalized at 150 μg proteins. Proteins were separated by isoelectric focusing on immobilized linear pH gradient strips (pH 5 to 8, Biorad) before being separated by SDS-PAGE and immunoblotted as described (Bockstaele et al., 2006, Mol Cell Biol, 26, 5070-85).

CC(=O)c1c(C)c2cnc(Nc3ccc(N4CCNCC4)cn3)nc2n(C2CCCC2)c1=O [PD0332991, palbociclib]
sensitivity of the cell line to palbociclib ([1]; HCC1569): insensitive
IC50 ([1]; Homo sapiens, HCC1569, 24 h): > 1000 nM
IC50 ([2]; Homo sapiens, MDA-MB-361, 24 h): 10 nM
sensitivity of the cell line to PD0332991 ([2]; MDAMB361, HER2+): sensitive
sensitivity of the cell line to PD0332991 ([3]; HCC70, basal-like): insensitive
IC50 ([3]; Homo sapiens, HCC70, 24 h): > 1000 nM
sensitivity of the cell line to PD0332991 ([4]; HCC38, basal-like): sensitive
IC50 ([4]; Homo sapiens, HCC38, 24 h): 15 nM
IC50 [5]: 25 nM
IC50 ([6]; Homo sapiens, MDA-MB-134-VI, 24 h): 3 nM
sensitivity of the cell line to PD0332991 ([6]; MDAMB134IV as printed, luminal): sensitive
sensitivity of the cell line to PD0332991 ([7]; HCC1954, HER2+): sensitive
IC50 ([7]; Homo sapiens, HCC1954, 24 h): 25 nM
IC50 ([8]; Homo sapiens, ZR-75-1, 24 h): 15 nM
sensitivity of the cell line to PD0332991 ([8]; ZR75-1): sensitive
sensitivity of the cell line to PD0332991 ([9]; HCC1937, basal-like): insensitive
IC50 ([9]; Homo sapiens, HCC1937, 24 h): > 1000 nM
sensitivity of the cell line to PD0332991 ([10]; BT474, HER2+): sensitive
IC50 ([10]; Homo sapiens, BT-474, 24 h): 15 nM
sensitivity of the cell line to PD0332991 ([11]; BT20, basal-like): sensitive
IC50 ([11]; Homo sapiens, BT-20, 24 h): 3 nM
IC50 ([12]; Homo sapiens, MDA-MB-231, 24 h): 15 nM
sensitivity of the cell line to PD0332991 ([12]; MDAMB231, basal-like): sensitive
IC50 ([13]; Homo sapiens, MCF7, 24 h): 15 nM
sensitivity of the cell line to PD0332991 ([13]; MCF7, luminal): sensitive
proportion of cells in S phase measured with the BrDU assay ([14]; HCC1806 cells, 1 μM PD0332991 (FIG. 1C), average of 5 independent experiments): 80 % of the control value
IC50 ([14]; Homo sapiens, HCC1806, 24 h): 10 nM
IC50 ([15]; Homo sapiens, 24 h): 15 nM
sensitivity of the cell line to PD0332991 ([15]; luminal): sensitive
IC50 ([16]; Homo sapiens, MDA-MB-468, 24 h): > 1000 nM
sensitivity of the cell line to PD0332991 ([16]; MDAMB468, basal-like): insensitive
cell lines in which the proportion of DNA replicating cells was reduced in a concentration-dependent way ([17]; BrdU incorporation): 13 out of these 20 cell lines
IC50 ([17]; Homo sapiens, read-out: IC50s with the BrdU incorporation assay): 5 to 50 nM
sensitivity of the cell line to PD0332991 ([18]; HCC1500, basal-like): sensitive
IC50 ([18]; Homo sapiens, HCC1500, 24 h): 10 nM
sensitivity of the cell line to PD0332991 ([19]; BT459 as printed, basal-like): insensitive
IC50 ([19]; Homo sapiens, BT-549, 24 h): > 1000 nM
IC50 ([20]; Homo sapiens, MDA-MB-436, 24 h): > 1000 nM
sensitivity of the cell line to PD0332991 ([20]; MDAMB436, basal-like): insensitive
IC50 ([21]; Homo sapiens, SK-BR-3, 24 h): 15 nM
sensitivity of the cell line to PD0332991 ([21]; SKBR3, HER2+): sensitive
inhibition of pRb phosphorylations in response to PD0332991 [22]: marked inhibition

CC[C@H](CO)Nc1nc(NCc2ccccc2)c2ncn(C(C)C)c2n1 [Roscovitine]
effect of Roscovitine on the sensitivity of HCC1806 cells to PD0332991 ([14]; 2.5, 5, 10 μM Roscovitine with increasing concentrations of PD0332991, BrdU (FIG. 5)): dose-dependently increased the sensitivity
